Laboratory results published in patent US20240219373A1, “METHOD FOR EVALUATING EFFICACY OF ANTICANCER DRUG OR SCREENING ANTICANCER DRUG” (ORGANOIDSCIENCES LTD., priority 2021, published 2024).

Columns and labels:
Format in all cases: cell-based, human
[1] = test system: cancer organoids derived from colorectal cancer patients; test: Overall efficacy (organoid area change, HCS) in co-culture of cancer organoids, CD8+ T cells and M1; settings: Groups 1, 3, 6 and 8: cancer organoids:M1 fixed 1:1, CD8+ T cell ratio changes; 10 nM; 72 hours
Source text: In order to confirm whether the screening system composed of cancer organoids, CD8+ T cells and M1 as confirmed in Example 1.1 can be used to evaluate the efficacy of a drug, the death rate of cancer organoids by phagocytosis was observed after treating the system with an anti-PD-L1 antibody atezolizumab previously used as an immuno-anticancer drug, anti-CD47 antibody and a combination thereof.
Atezolizumab activates CD8+ T cells by binding to PD-L1 on cancer cells and blocking the PD-1/PD-L1 mechanism, and anti-CD47 antibody activates macrophages by binding to […] and blocking the SIRP-a/CD47 mechanism. […]
Then, they were co-cultured, and treated with 10 nM of Atezolizumab (Selleck, #A2004) which is anti-PD-L1 antibody and/or 10 nM of anti-CD47 antibody. After that, the death rate of cancer organoids or M1 was analyzed at each ratio. Herein, the ratio of the CD8+ T cells and M1 was tested in a narrower range than the ratio applied in Example 1.1, and the changes in organoid area for 72 hours after drug treatment was analyzed by HCS (High-Content Screening). After 72 hours from drug treatment, the overall efficacy was evaluated by calculating the change in the organoid area of the drug-treated group compared to the organoid area of the non-treated group.

[2] = test system: lung cancer organoids; test: Growth and death rate of lung cancer organoids co-cultured with TILs
Procedure: (§1) Specifically, the inventors set a mixing ratio satisfying co-culture conditions under which (1) cancer organoids grow properly and (2) drug efficacy is well observed. Cancer organoids were prepared using cancer cells isolated from tumor tissues of lung cancer or colorectal cancer patients, and TILs obtained by co-culture with cancer organoids for 14 days according to Example 1.1 were used.
(§2) Herein, the number of organoids or TILs was set to 1 for 5.0×10^3.
(§3) In addition, for the co-cultures of cancer organoids and TILs according to the ratio above, those not treated with the drug were set as the control group (hereinafter referred to as ‘drug-untreated group’), and those treated with atezolizumab, which is currently marketed and used for a cancer treatment, as an exemplary drug were set as the experimental group (hereinafter referred to as ‘drug-treated group’). After co-culturing for 72 hours, the growth rate was measured immediately after the start of the co-culture (0 h), after 24 hours (24 h), after 48 hours (48 h) and after 72 hours (72 h), respectively, and the death rate was analyzed by the following method through the measured growth rate: Cancer organoid death rate (%)=[1−(growth rate of cancer organoids in the drug-treated group*)/(growth rate of cancer organoids in the drug-untreated group**)]×100

[3] = test system: colorectal cancer organoids; test: Growth and death rate of colorectal cancer organoids co-cultured with TILs
Procedure: as §1, §2, §3

[4] = test system: colorectal cancer organoids; test: Death rate of colorectal cancer organoids co-cultured with CD8+ T cells and Tregs; settings: 72 h
Procedure: (§4) Herein, the number of organoids or cells was set to 1 for 5.0×10^3.
(§5) Cancer organoids were prepared using stem cells isolated from tumor tissue of colorectal cancer or lung cancer patients. The isolated stem cells were mixed with ECM (extracellular matrix) to grow into a 3D structure to make a dome, and then organoids were formed and used through culture. CD8+ T cells and Tregs were obtained from blood obtained from colorectal cancer or lung cancer patients. Immune cells present in the blood were differentiated, and CD8+ and Treg cells were isolated from the differentiated immune cells using a MACS (magnetic activated cell sorting) method.
(§6) Specifically, for the co-cultures of cancer organoids, CD8+ T cells and Tregs according to the mixing ratio in Table 6 above, those not treated with the drug were set as the control group (hereinafter referred to as ‘drug-untreated group’), and those treated with an atezolizumab targeting CD8+ T cells or an anti-TIGIT antibody targeting CD8+ T cells or Tregs as an exemplary drug were set as the experimental group (hereinafter referred to as ‘drug-treated group’). After co-culturing them for 72 hours, the growth rate was measured after 72 hours of drug treatment (72 h), and the death rate was analyzed by the following method through the measured growth rate.

[5] = test system: lung cancer organoids; test: Death rate of lung cancer organoids co-cultured with CD8+ T cells and Tregs; settings: 72 h
Procedure: as §4, §5, §6

[6] = test system: colorectal cancer organoids; test: Growth and death rate of colorectal cancer organoids co-cultured with CD8+ T cells and DCs
Procedure: (§7) Specifically, in order to establish a co-culture system in which cancer organoids, cytotoxic T cells (hereinafter referred to as ‘CD8+ T cells’) and dendritic cells (hereinafter referred to as ‘DC’) coexist, the inventors set a mixing ratio satisfying co-culture conditions under which (1) cancer organoids grow properly and (2) drug efficacy is well observed. […] Herein, the number of organoids or cells was set to 1 for 5.0×10^3.
(§8) Cancer organoids were prepared to have a 3D structure by isolating colorectal cancer or lung cancer tissues obtained from patients into single cells and culturing them together with ECM (extracellular matrix). The formed cancer organoids were confirmed to be tumors through pathological analysis, and used after being isolated into single cells using Tryp-LE.
(§9) CD8+ T cells isolated from PBMCs were used. PBMCs were isolated from blood obtained from donors by using Ficoll, and CD8+ T cells were isolated through MACS after a T cell activation process.
(§10) DCs differentiated from iPSCs were used, and DCs were differentiated from the H9 cell line using a general method known in the art.
(§11) Specifically, for the co-cultures of cancer organoids, CD8+ T cells and DCs according to the mixing ratio in Table 7 above, those not treated with the drug were set as the control group (hereinafter referred to as ‘drug-untreated group’), and those treated with an atezolizumab targeting CD8+ T cells as an exemplary drug were set as the experimental group (hereinafter referred to as ‘drug-treated group’). Drugs were treated immediately after the start of co-culture, and the growth rate of cancer organoids was measured immediately after the start of the co-culture (0 h), after 24 hours (24 h), after 48 hours (48 h) and after 72 hours (72 h), respectively. The death rate was analyzed by the following method through the measured growth rate.

[7] = test system: lung cancer organoids; test: Growth and death rate of lung cancer organoids co-cultured with CD8+ T cells and DCs
Procedure: as §7, §8, §9, §10, §11

[8] = lung cancer organoids:TILs 1:0.5
[9] = lung cancer organoids:TILs 1:1.5
[10] = colorectal cancer organoids:TILs 1:0.5
[11] = colorectal cancer organoids:TILs 1:1.5

Substance: atezolizumab
- growth inhibition and death of cancer organoids (overall efficacy) [1]: high
- death rate of lung cancer organoids [2, 8]: about 5%
- response of lung cancer organoids (growth rate and death rate vs control group) [2, 8]: did not respond to the drug
- anticancer effects on lung cancer organoids (growth, death) [2, 9]: inhibiting the growth and increasing death
- death rate of lung cancer organoids [2, 9]: about 20%
- death rate of lung cancer organoids ([2]; lung cancer organoids:TILs 1:3): about 5%
- death rate of colorectal cancer organoids [3, 10]: about 5%
- response of colorectal cancer organoids (growth rate and death rate vs control group) [3, 10]: did not respond to the drug
- anticancer effects on colorectal cancer organoids (growth, death) [3, 11]: inhibiting the growth and increasing death
- death rate of colorectal cancer organoids [3, 11]: about 10%
- death rate of colorectal cancer organoids ([3]; colorectal cancer organoids:TILs 1:3): about 5%
- death rate of cancer organoids, maximum level ([4]; colorectal cancer organoids:CD8+ T cells 1:1, Treg 0.5 to 3): about 10%
- death rate of cancer organoids ([4]; colorectal cancer organoids:CD8+ T cells 1:3, with Tregs): about 25%
- death rate of cancer organoids ([4]; colorectal cancer organoids:CD8+ T cells 1:3, without Tregs): about 26%
- death rate of cancer organoids ([4]; colorectal cancer organoids:Tregs 1:3, without CD8+ T cells): about 2%
- death rate of cancer organoids, maximum level ([5]; lung cancer organoids:CD8+ T cells 1:1, Treg 0.5 to 3): about 10%
- death rate of cancer organoids ([5]; lung cancer organoids:CD8+ T cells 1:3, with Tregs): about 25%
- death rate of cancer organoids ([5]; lung cancer organoids:CD8+ T cells 1:3, without Tregs): about 27%
- death rate of cancer organoids ([5]; lung cancer organoids:Tregs 1:3, without CD8+ T cells): about 1%
- death rate of cancer organoids, maximum level ([6]; colorectal cancer organoids:CD8+ T cells 1:0.5, DC 0.5 to 5, 72 h): about 5%
- maximum death rate of cancer organoids ([6]; colorectal cancer organoids:CD8+ T cells 1:1, DC 0.5 to 5, 72 h): about 10%
- growth of cancer organoids ([6]; colorectal cancer organoids:CD8+ T cells:DCs 1:0.5:0.5 to 5): did not significantly inhibit the growth
- growth of cancer organoids ([6]; colorectal cancer organoids:CD8+ T cells:DCs 1:1 to 3:0.5 to 5): inhibited the growth
- death rate of cancer organoids, maximum level ([7]; lung cancer organoids:CD8+ T cells 1:0.5, DC 0.5 to 5, 72 h): about 5%
- maximum death rate of cancer organoids ([7]; lung cancer organoids:CD8+ T cells 1:1, DC 0.5 to 5, 72 h): about 10%
- growth of cancer organoids ([7]; lung cancer organoids:CD8+ T cells:DCs 1:0.5:0.5 to 5 or 1:1:0.5 to 1): did not significantly inhibit the growth
- growth of cancer organoids ([7]; lung cancer organoids:CD8+ T cells:DCs 1:1:5 or 1:3:0.5 to 5): inhibited the growth
